“Also recorded” adds a separate entry of the source.
Assays:
[1] = tested on: mucosal RNA of regulatory factors associated with inflammatory bowel disease; experiment: Mucosal RNA of regulatory factors by RT-PCR, DSS mice, oral administration; type: in vivo; conditions: oral therapy, 7 days
Procedure: Experiments were conducted during development of embodiments of the invention in order to determine if AT1a antagonists or derivatives thereof could treat signs and symptoms of inflammatory bowel disease (e.g., inflammatory conditions of the intestine) when administered orally. Materials and methods were used as described in Example 3 with the following exceptions. AT1a antagonists or derivatives thereof were suspended in water. Each dose was given via the oral route using a blunt tipped needle by gavage directly into the stomach of each mouse. Dosing was daily in a single administration over a period of seven days. Realtime PCR was utilized to measure the abundance of mucosal RNA of several regulatory factors associated with inflammatory bowel disease. Factors studied were: TNF-α(tumor necrosis factor-alpha); interleukin-1b (IL-1b); IL-6; IL-10; transforming growth factor-beta (TGF-b) and Foxp3 (a T-cell regulatory factor). […] Realtime PCR was also utilized to measure the abundance of mucosal RNA of several additional regulatory factors associated with inflammatory bowel disease. IL-12p40, the regulatory factor for interleukin-12 (IL-12), and a key regulator for the up-regulation of interferon gamma (IFN-g); IFN-g; […]

[2] = tested on: Ang I-infused dogs; conditions: i.v., 1 mg/kg; cited from earlier work
[3] = biological target: T1, AT1a receptor (Rattus norvegicus, UniProt P25095); experiment: Ang II-dependent NF-κB-luciferase reporter assay in HepG2-AR cells; type: cell-based; conditions: Ang II 1 μM, 16 hours, Ang II alone = 100% induction, read-out: inhibition of NF-κB activation
T1 construct: expressed in transfected cells; host or cells: HepG2 (HepG2-AR), stably transfected
T1 sequence (P25095 1-359): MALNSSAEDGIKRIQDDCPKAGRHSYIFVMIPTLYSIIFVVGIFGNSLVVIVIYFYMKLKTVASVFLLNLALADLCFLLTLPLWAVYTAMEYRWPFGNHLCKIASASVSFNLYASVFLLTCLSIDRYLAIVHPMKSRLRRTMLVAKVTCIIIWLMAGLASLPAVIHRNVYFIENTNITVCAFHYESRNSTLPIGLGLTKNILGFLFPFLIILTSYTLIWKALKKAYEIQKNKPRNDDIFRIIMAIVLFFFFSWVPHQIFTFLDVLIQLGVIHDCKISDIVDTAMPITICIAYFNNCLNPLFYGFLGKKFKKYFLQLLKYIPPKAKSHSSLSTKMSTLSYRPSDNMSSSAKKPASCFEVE
Source text: In vitro assessment of AT1aR antagonism. […] This model makes use of the fact that Ang II-dependent stimulation of the AT1a receptor results in rapid activation of the NF-κB transcription factor. In this model, HepG2-AR cells, which stably express the AT1a receptor, were transiently transfected with an NF-κB-luciferase reporter plasmid and a control renilla plasmid (to correct for transfection efficiency). […] Cells were harvested and the luciferase/renilla ratio determined using the Promega Dual Luciferase Assay Kit. […] Loss of Ang II-dependent luciferase induction (measured by luminometer; LMax; Molecular Devices), due to the presence of receptor blockade was then calculated and used to indicate the extent of successful blockade of the AT1a receptor signaling pathway.
HepG2-AR cells, which stably express the AT1a receptor, were transiently transfected with an NF-κB-luciferase reporter plasmid and a control renilla plasmid (to correct for transfection efficiency). […] Cells were harvested and the luciferase/renilla ratio determined using a luciferase assay kit (e.g., Promega Dual Luciferase Assay Kit). […] The fold induction in the presence of varying doses of inhibitor was then converted to a percentage of this maximal induction.

[4] = biological target: AT1a receptor; conditions: read-out: IC50 against the binding of Ang II to the AT1a receptor; cited from earlier work
[5] = tested on: DSS colitis mice; experiment: DSS colitis in mice, transanal treatment: body weight, fecal blood, histology, apoptosis; type: in vivo, C57BL/6 mice; conditions: for weight loss after 7 days (body weight change, FIG. 10B): 2.5% DSS, DCL and Losartan 10× (2,500 μg per dose), Candesartan 1× (250 μg per dose), mean±SD, placebo −15.81±6.59; for weight loss after 7 days (body weight change, FIG. 10B) / period before developing heme positive stools: transanal daily; for weight loss after 1 week (percentage change from baseline body weight) / period before developing heme positive stools: DSS; for weight loss after 1 week (percentage change from baseline body weight): transanal daily 7 days, placebo 15.8±6.5, P<0.001 versus placebo; for period before developing heme positive stools: placebo 5.64±1.22 days
Procedure: Animals. Specific pathogen-free male, 8-week old C57BL/6 mice (Taconic Farms Inc, Germantown, N.Y.) were maintained in a 12-h night rhythm at 23° C. and a relative humidity of 40-60%. Animals were fed standard rodent chow (LabDiet 5001Rodent Diet, PMI Nutrition International, LLC, Brentwood, Mo.) ad libitum. All experiments were approved by the University Committee on Use and Care of Animals at the University of Michigan. Experimental colitis design. Dextran sodium sulfate (DSS) was administered through drinking water for 7 days. Mice were randomly divided into 5 groups. In the DSS+placebo group, mice were given […] (total volume 0.25 ml) each day as a control. […] A[…]-A were given at 10-fold higher doses (losartan and […]: 10 mg/kg/day, candesartan: 1 mg/kg/day) than typically given systemically, and daily dosing was continued for 7 days. The study drugs were administered using a blunt needle via the […] route. Testing conducted during development of embodiments of the invention characterized that this amount of drug evenly coated the entire colon. A separate group of mice contained naive mice as an additional control group which received plain drinking water ad libitum, and received only water (0.25 ml, […]) without AT 1 aR-A. Harvesting. Mice were euthanized 7 days after DSS by carbon dioxide asphyxiation. […] Formalin preserved sections of distal colon were preserved in paraffin, sectioned transversely (5 μm) and stained with hematoxylin and eosin (H&E). The remaining colon was immediately processed for mucosal cell isolation. Assessment of colitis. The body weight of each mouse, stool characteristics, and intestinal bleeding were recorded. All animals were evaluated daily. Occult bleeding was tested using a hemoccult-card test (Beckman Coulter Inc, Fullerton, Calif.). Histologic grading of colitis was performed in a masked fashion (investigator blinded to the study group) according to previously described methods. (See, e.g., Spencer et al., et al. Dig Dis Sci 2007; 52:1060-70). Crypt shortening and distortion, together with inflammatory infiltrative thickening of the lamina propria, were assigned a score 0 (normal) through 4 (complete loss of crypt, ulceration, and severe thickening of lamina propria). The individual colitis score (0-4) from four quadrants of a left-sided colonic section were summed, such that the maximum score for a given section was 16, and the minimum score was 0. The mean of at least 2 sections were assessed in this manner for each mouse. Epithelial cell apoptosis assays. A terminal deoxynucleotidyl transferase biotin-dUTP nick end labeling (TUNEL) staining method was used to detect apoptosis, according to manufacturer's instructions (APOPTAG PLUS Peroxidase InSitu Apoptosis Detection Kit, Chemicon International Inc, Temecula, Calif.), with slight modification. Slides were incubated with only one-third of the recommended concentration of TdT enzyme, in order to avoid over-staining. Assessment of apoptosis consisted of separate counting of all TUNEL positive EC in all well oriented crypts and villi separately, and dividing the total number of counted apoptotic cells per number of analyzed crypts and villi, respectively. Apoptotic Index in the region of villi is expressed as the number of TUNEL positive cells per one villus. The addition of both crypt and villus apoptotic indices is expressed as the apoptotic index per crypt-villus complex (at 20× magnification).

[6] = Blood pressure and heart rate by tail-cuff in DSS mice after transanal treatment; type: in vivo, C57BL/6 mice; conditions: day 6 of DSS; for systolic blood pressure change (Delta BP, post − pre treatment): 1 hour before and 2 hr after treatment; for heart rate change: compared with naïve group
Source text: Measurements of Blood Pressure and Heart Rate. […] The system was designed to perform all functions automatically, including a programmable routine of cuff inflation and deflation, analysis and assignment of pulse rate and blood pressure, and recording of data electronically. To avoid variations in blood pressures, results were expressed using % Delta Blood Pressure (percent change in systolic pressures prior to and after treatment). Heart rate was also expressed as the change in rate before and after final dosing of […] drug/placebo.

[7] = mouse, in vivo
Source text: The scores were compared to the Naïve cohort.
Colonic mucosal and mesenteric blood flow measurements.

[8] = tested on: AT1a receptor; conditions: cited from earlier work
[9] = in vivo; cited from earlier work

Row | Compound | mucosal RNA of IL-12p40, IFN-g, IL-17, AT1aR and ADAM17 [1] | time a ≧20 mmHg drop in mean arterial blood pressure (MABP) was maintained [2] | inhibition at 60 µM [3] | IC50 [4] | weight loss after 7 days (body weight change, FIG. 10B) [5] | weight loss after 1 week (percentage change from baseline body weight) [5] | period before developing heme positive stools [5] | systolic blood pressure change (Delta BP, post − pre treatment) [6] | systolic blood pressure change (Delta BP, post − pre treatment) ([6]; listed as Losartan) | heart rate change [6] | colonic blood flow at the mucosal level [7] | mesenteric blood flow [7] | mucosal RNA of ADAM17 [1] | receptor blockade function compared with losartan [8] | oral activity [9] | systolic blood pressure change (Delta BP, post − pre treatment) ([6]; listed as Candesartan) | systolic blood pressure change (Delta BP, post − pre treatment) ([6]; listed as candasartan)
1 | CCCCc1nc(Cl)c(CO)n1Cc1ccc(-c2ccccc2-c2nn[nH]n2)cc1 [losartan] | marked decline in several of these factors | 30 min | 90% | 50 nM | 0.07±2.50% | 0.07±2.50% | 6.8 ± 2.7 days | significant decline in blood pressure | decline in systolic BP; also recorded: resulted in a decline | not significantly different | 0.88±0.32 | 1.97±0.58 | – | – | – | – | –
2 | CCCCc1ncc(CO)n1Cc1ccc(-c2ccccc2-c2nn[nH]n2)cc1 [DCL, des-chloro losartan] | – | – | – | – | −2.02±4.34% | 2.02±4.34% | 7.00 ± 1.4 days | did not significantly change BP; also recorded: no change in systolic blood pressure | – | not significantly different | failed to change | failed to change | marked decline in ADAM17 | nearly the same receptor blockade function as losartan | lacks oral activity | – | –
3 | CCOc1nc2cccc(C(=O)O)c2n1Cc1ccc(-c2ccccc2-c2nnn[nH]2)cc1 [candesartan] | – | – | – | – | −0.63±1.63% | 0.63±1.63% | 8.0 ± 0.0 days | decline in systolic BP | – | declined significantly | 0.92±0.20 | 1.56±0.33 | – | – | – | resulted in a decline | significant decline in blood pressure

From patent US8293776B2, “Compositions and methods for treating inflammatory conditions of the bowel” (The Regents of the University of Michigan, priority 2008, dated 2012)
